One experiment has as its target PfBDP1-BRD (Plasmodium falciparum, UniProt Q8IJ72). Description: Isothermal titration calorimetry (ITC) with PfBDP1-BRD. It is filed as binding. The settings on record: 25 °C. The method, then:
and incubated at 37 °C and 180 rpm until an OD600 of ~2.5. The culture was cooled to 18 °C, induced with 0.2 mM IPTG, and incubated for 16 hours overnight. Cells were harvested by centrifugation (Beckman Coulter Avanti J-26 XP, Rotor: JLA 8.100 Rotor) at 5000 x g for 15 min at 4 °C.
The cell pellet was resuspended in PBS (1:3 w/v). The suspension was lysed by sonication (Branson Digital Sonifier 250; 15 min, 3 sec pulse, 10 sec pause, amplitude 70%) at 4 °C. Insoluble debris was removed by centrifugation (Beckmann Coulter Avanti-J30 I, Rotor: 30.50Ti) at 80,000 x g for 45 min at 4 °C. The lysate was then sterile-filtered (0.45 µm) and purified by […] affinity chromatography. The protein was cleaved using either PreScission Protease (PfBDP1-BRD-construct) or TEV Protease (PvBDP1-BRD-construct) separating the bromodomain from the fusion protein. Further separation of the cleaved GST tag and any remaining GST fusion protein was achieved by an additional round of GST affinity chromatography.
Specifically, we used Glutathione Sepharose High Performance (HP) resin (Cytiva, 17-5279-01). A 25 mL batch of resin was self-packed into a column, equilibrated with PBS, and used to purify GST-tagged proteins. The cleaved bromodomain, which […]
Following this step, the bromodomain protein was further purified by size exclusion chromatography using a HiLoad 26/600 Superdex 75 pg column (GE Healthcare).
Isothermal Titration Calorimetry (ITC)
Affinity was measured using a MicroCal VP-ITC microcalorimeter (Malvern Instruments). Measurements were performed at 25 °C with the ligand (0.04 mM) in PBS (Phosphate buffer saline; 137 mM NaCl, 10 mM phosphate, 2.7 mM KCl; pH 7.4) buffer present in the cell and the protein (0.4 mM) injected via a stirred syringe (351 revolutions per minute) in 5 min intervals (1 injection of 6 µL and 20 injections of 13.5 µL). Solutions were degassed prior to measurements. The first injection was discarded to account for any potential diffusion during equilibration. Automated baseline correction and peak integration were conducted using NITPIC[1,2]. Analysis, fitting, and thermodynamic calculations were performed using a binary interaction model in SEDPHAT[3], and plots were generated using GUSSI[4]. Confidence intervals were calculated using the “Automatic Confidence Interval Search with Projection” method in SEDPHAT. During the confidence level search, the confidence level was set to 0.99, and Simplex optimization was applied prior to Marquardt-Levenberg at each step. Error Surface Projection was performed by alternating between Simplex and Marquardt-Levenberg algorithms until convergence was achieved.
Supporting Table S1. Amino acid sequences of proteins used in this […]
PfBDP1-BRD Construct (Uniprot: Q8IJ72; Residues: 333-456)
The construct includes an N-terminal GST-tag followed by a Prescission protease cleavage site. After cleavage, the purified protein retains an additional […] sequence at […]
the N-terminus, which originates from the vector's multiple cloning site. […]
For orientation: ITC needs no label: the signal is the heat of the interaction.

Another experiment deals with P. falciparum 3D7. As to the kind of experiment: Malaria SYBR green I based fluorescence assay, dose response, 3D7. The class given is cell-based. The note with it: Plasmodium falciparum, blood stage culture, 72 hours, mean (SD), 1 to 3 biological replicates. The method, then:
(§1) The BRDi compounds had modest activity against all three strains (Table 2 ). […]
(§2) Shield1. Parasites were propagated in human red blood cells (blood group 0+) obtained from the Bavarian Red Cross service (BRK) and cultivated under standard conditions in RPMI 1640 (ThermoFisher) supplemented with 0.5% Albumax
(§3) (ThermoFisher), 20 µg/ml Gentamycin, 25 mM Hepes (pH 7.3), and 0.02% hypoxanthine in an atmosphere of 1% O2, 5% CO2, 94% N2.
(§4) Malaria SYBR green I based fluorescence assay
(§5) SYBR Green I based fluorescence assays to determine dose-response curves were performed essentially as described previously (Leidenberger et al., 2017). Briefly, parasite cultures were diluted to 1% ring stage parasitemia and cultivated at 2.5% haematocrit in 96 well plates in the presence of serial half-log dilutions of the compounds ranging from 100 µM to 10 nM or DMSO (dimethyl sulfoxide) corresponding to the highest concentration (0.1%). Chloroquine (C6628, Sigma-Aldrich) was used as control that was not expected to target PfBDP1 and was titrated from 5 µM to 1.6 nM. After 72 hours, cultures were lysed in lysis buffer (20 mM Tris-HCl, 5 mM EDTA, 0.008% saponin (Sigma-Aldrich), 0.08% Triton X (Sigma-Aldrich), 1:10,000 SYBR Green I dye (Invitrogen)) and fluorescence was measured in a Fluoroskan Ascent FL reader (excitation: 485 nm, emission: 530 nm). […]

The test system of the next experiment is P. falciparum NF54. Description: Malaria SYBR green I based fluorescence assay, dose response, NF54. The class given is cell-based. The settings on record: Plasmodium falciparum, blood stage culture, 72 hours, mean (SD), 1 to 3 biological replicates. Here is the method: as §1, §2, §3, §4, §5
In experiment [1] the test system is P. falciparum K1 (multidrug resistant). Description: Malaria SYBR green I based fluorescence assay, dose response, K1. The class given is cell-based. The settings on record: Plasmodium falciparum, K1, 72 h, read-out: EC50 K1. The method, then: as §1
resistant strain K1, MRA-159, contributed by Dennis E. Kyle. […]
as §2, §3, §4, §5

For experiment [2], the system named is 3D7::PfBDP1HADD parasites. As to the kind of experiment: Dose-response assay in conditional PfBDP1 knockdown parasites. It is filed as cell-based, Plasmodium falciparum. The note with it: 10 nM Shld1 compared to 500 nM Shld1, 72 h.
Description: To validate whether the compounds indeed target the BRD of PfBDP1, we utilized a conditional KD system to modulate the expression levels of PfBDP1 in situ.^[ [15] ^] In the 3D7::PfBDP1HADD line, PfBDP1 is fused at its C‐terminus to a ligand‐regulatable FKBP destabilization domain (DD) that targets the fusion protein for proteasomal degradation but can be stabilized by the Shield1 ligand, and 3xHA epitope tags for detection ^11. […] In contrast, the EC50 of chloroquine was unchanged.
A) Western Blot analysis of 3D7::PfBDP1HADD parasites cultivated in the presence of Shield1 (Shld) in concentrations ranging from 0 to 500 nM over 72 h in duplicates. PfBDP1HADD was detected by anti‐HA antibodies. Histone 3 (H3) was probed as a loading control. […] Growth was determined relative to DMSO controls for each condition after 72 h of culture. N = 4 replicates. […] Binding of PfBDP1HA to target loci was calculated as enrichment relative to histone H3 ChIP performed in parallel. Shown are individual values and median of one representative experiment with technical duplicates. Paired t‐test, p = 0.0015. […]
resistant strain K1, MRA-159, contributed by Dennis E. Kyle. The NF54::PfBDP1HA parasite line was generated by transfection of NF54 parasites with the plasmid pSLI_PfBDP1_3xHA and selection linked integration of the construct in the presence of G418[21]. […]
as §4
SYBR Green I based fluorescence assays to determine dose-response curves were performed essentially as described previously (Leidenberger et al., 2017). […] After 72 hours, cultures were lysed in lysis buffer (20 mM Tris-HCl, 5 mM EDTA, 0.008% saponin (Sigma-Aldrich), 0.08% Triton X (Sigma-Aldrich), 1:10,000 SYBR Green I dye (Invitrogen)) and fluorescence was measured in a Fluoroskan Ascent FL reader (excitation: 485 nm, emission: 530 nm). […]

The structures appear in SMILES notation. pEC50, pKd: −log10 of the molar value. Several values for one entry are separate records, joined by “and”; a condition that tells them apart may be missing. Equal values may be shown once. Read-outs that look alike come from different tables or passages of the source.

PfBDP1-BRD, sequence (Q8IJ72 entry or part of it): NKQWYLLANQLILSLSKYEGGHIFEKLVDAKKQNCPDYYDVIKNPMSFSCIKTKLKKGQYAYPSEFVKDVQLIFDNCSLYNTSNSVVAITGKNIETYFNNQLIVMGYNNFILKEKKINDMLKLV

For the molecule `Cc1[nH]c(-c2cccc(N)c2)c2c1C(=O)CCCC2` [MPM2], the pKd at PfBDP1-BRD (PBS pH 7.4, read-out: K D) was 5.17.

`Cc1[nH]c(-c2ccccc2)c2c1C(=O)CCCC2` [MPM3, 3-Methyl-1-phenyl-5,6,7,8-tetrahydrocyclohepta[c]pyrrol-4(2H)-one]: at PfBDP1-BRD (PBS pH 7.4, read-out: K D), the pKd is 5.00 and 4.98.

For the molecule `Cc1[nH]c(-c2cc(N)ccc2Cl)c2c1C(=O)CCCC2` [MPM6, reference compound], on PfBDP1-BRD (K D, PBS pH 7.4), the pKd was 5.34.

As for `Cc1[nH]c(-c2cccc(C(N)=O)c2)c2c1C(=O)CCCC2` [MPM8], at PfBDP1-BRD (PBS pH 7.4, read-out: K D), the pKd was 5.13.

In the case of `Cc1[nH]c(-c2ccccc2Cl)c2c1C(=O)CCCC2` [RMM1], the pKd at PfBDP1-BRD (PBS pH 7.4, read-out: K D) is 5.24.

Regarding `Cc1ccccc1-c1[nH]c(C)c2c1CCCCC2=O` [RMM2], the pKd on PfBDP1-BRD (PBS pH 7.4, read-out: K D) was 5.41 and 5.40.

Consider `CCc1ccccc1-c1[nH]c(C)c2c1CCCCC2=O` [RMM3], for which, at PfBDP1-BRD (PBS pH 7.4, read-out: K D), the pKd is 5.04.

`Cc1[nH]c(-c2ccccc2C(F)(F)F)c2c1C(=O)CCCC2` [RMM4]: the pKd on PfBDP1-BRD (PBS pH 7.4, read-out: K D) is 5.54 and 5.53.

Turning to `COc1ccccc1-c1[nH]c(C)c2c1CCCCC2=O` [RMM5], at PfBDP1-BRD (PBS pH 7.4, read-out: K D), the pKd was 5.15.

As for `Cc1cccc(-c2[nH]c(C)c3c2CCCCC3=O)c1` [RMM6, 3-Methyl-1-(m-tolyl)-5,6,7,8-tetrahydrocyclohepta[c]pyrrol-4(2H)-one], the pKd at PfBDP1-BRD (PBS pH 7.4, read-out: K D) was 5.21.

Consider `Cc1[nH]c(-c2cccc([N+](=O)[O-])c2)c2c1C(=O)CCCC2` [RMM7, 3-Methyl-1-(3-nitrophenyl)-5,6,7,8-tetrahydrocyclohepta[c]pyrrol-4(2H)-one], for which the pKd on PfBDP1-BRD (PBS pH 7.4, read-out: K D) was 4.77.

On to `CNc1cccc(-c2[nH]c(C)c3c2CCCCC3=O)c1` [RMM8, 3-Methyl-1-(3-(methylamino)phenyl)-5,6,7,8-tetrahydrocyclohepta[c]pyrrol-4(2H)-one], for which the pKd on PfBDP1-BRD (PBS pH 7.4, read-out: K D) was 5.04.

On to `Cc1[nH]c(-c2cccc(N(C)C)c2)c2c1C(=O)CCCC2` [RMM9, 1-(3-(dimethylamino)phenyl)-3-methyl-5,6,7,8-tetrahydrocyclohepta[c]pyrrol-4(2H)-one], for which the pKd on PfBDP1-BRD (PBS pH 7.4, read-out: K D) was 5.10.

On to `CC(=O)Nc1cccc(-c2[nH]c(C)c3c2CCCCC3=O)c1` [RMM10], for which, at PfBDP1-BRD (PBS pH 7.4, read-out: K D), the pKd was 5.16.

For `Cc1[nH]c(-c2cccc(NS(C)(=O)=O)c2)c2c1C(=O)CCCC2` [RMM11], the pKd at PfBDP1-BRD (PBS pH 7.4, read-out: K D) is 5.33.

Consider `Cc1[nH]c(-c2cccc(S(N)(=O)=O)c2)c2c1C(=O)CCCC2` [RMM13], for which the pKd at PfBDP1-BRD (PBS pH 7.4, read-out: K D) was 5.31.

As for `Cc1ccc(-c2[nH]c(C)c3c2CCCCC3=O)cc1` [RMM14], the pKd on PfBDP1-BRD (PBS pH 7.4, read-out: K D) is 4.93.

As to `Cc1[nH]c(-c2ccc(C(N)=O)cc2)c2c1C(=O)CCCC2` [RMM15], the pKd on PfBDP1-BRD (PBS pH 7.4, read-out: K D) is 5.35.

As for `CNC(=O)c1ccc(-c2[nH]c(C)c3c2CCCCC3=O)cc1` [RMM16], at PfBDP1-BRD (PBS pH 7.4, read-out: K D), the pKd was 5.29.

In the case of `Cc1[nH]c(-c2ccc(C(=O)N(C)C)cc2)c2c1C(=O)CCCC2` [RMM17], the pKd at PfBDP1-BRD (PBS pH 7.4, read-out: K D) is 4.37.

On to `Cc1[nH]c(-c2ccc(C#N)cc2)c2c1C(=O)CCCC2` [RMM18], for which the pKd at PfBDP1-BRD (PBS pH 7.4, read-out: K D) was 5.34.

Regarding `Cc1[nH]c(-c2ccc(S(N)(=O)=O)cc2)c2c1C(=O)CCCC2` [RMM19], the pKd at PfBDP1-BRD (PBS pH 7.4, read-out: K D) was 5.19.

As to `Cc1ccc(NS(C)(=O)=O)cc1-c1[nH]c(C)c2c1CCCCC2=O` [RMM20], the pKd at PfBDP1-BRD (PBS pH 7.4, read-out: K D) is 5.09.

As to `Cc1[nH]c(-c2cccc(NS(C)(=O)=O)c2C)c2c1C(=O)CCCC2` [RMM21, N-(2-Methyl-3-(3-methyl-4-oxo-2,4,5,6,7,8-hexahydrocyclohepta[c]pyrrol-1-yl)phenyl)methanesulfonamide], at PfBDP1-BRD (PBS pH 7.4, read-out: K D), the pKd was 5.56.

Turning to `Cc1cc(C#N)ccc1-c1[nH]c(C)c2c1CCCCC2=O` [RMM22, 3-Methyl-4-(3-methyl-4-oxo-2,4,5,6,7,8-hexahydrocyclohepta[c]pyrrol-1-yl)benzonitrile], the pKd on PfBDP1-BRD (PBS pH 7.4, read-out: K D) is 5.63.

In the case of `Cc1cc(C#N)cc(C)c1-c1[nH]c(C)c2c1CCCCC2=O` [RMM24, 3,5-dimethyl-4-(3-methyl-4-oxo-2,4,5,6,7,8-hexahydrocyclohepta[c]pyrrol-1-yl)benzonitrile], the pKd on PfBDP1-BRD (PBS pH 7.4, read-out: K D) was 5.91.

For orientation: pEC50 means the EC50 on a negative log10 scale, so that one unit is a factor of ten. On to `Cc1cc(C(N)=O)cc(C)c1-c1[nH]c(C)c2c1CCCCC2=O` [RMM25, 3,5-Dimethyl-4-(3-methyl-4-oxo-2,4,5,6,7,8-hexahydrocyclohepta[c]pyrrol-1-yl)benzamide], for which the pKd on PfBDP1-BRD (PBS pH 7.4, read-out: K D) was 6.05. Besides, the pEC50 is 4.72 with P. falciparum 3D7, 4.91 in the experiment with P. falciparum NF54 and 5.13 in experiment [1]. Further, the “change of sensitivity (dose-response, EC50) under partial PfBDP1 knockdown” value in experiment [2] was “moderately increased sensitivity”.

Consider `CCN(CC)CCCC(C)Nc1ccnc2cc(Cl)ccc12` (centres unmarked) [chloroquine, Chloroquine, reference compound], for which the “change of sensitivity (dose-response, EC50) under partial PfBDP1 knockdown” value in experiment [2] is recorded as “unchanged”.

For the origin of these results see publication PMC12132910, “A Novel Inhibitor against the Bromodomain Protein 1 of the Malaria Pathogen Plasmodium Falciparum” (Chemmedchem, 2025).
